The values below are quoted from earlier work in patent publication US20220079896A1, “DELAYED RELEASE COMPOSITIONS” (AMNEAL COMPLEX PRODUCTS RESEARCH LLC, priority 2020, published 2022).

For the molecule `NC(=O)C[S@@+]([O-])C(c1ccccc1)c1ccccc1` [Armodafinil, (−)-2-[(R)-(diphenylmethyl)sulfinyl] acetamide], the “mean single-dose terminal elimination half-life” value is “approximately 13 hours”.

With `NC(=O)C[S+]([O-])C(c1ccccc1)c1ccccc1` (centres unmarked) [modafinil], the “mean single-dose terminal elimination half-life” value is listed as “approximately 13 hours”.
